According to US20260248789A1, “CONTROLLED RELEASE PDE10A FORMULATIONS” (Merck Sharp & Dohme LLC, priority 2023, published 2026):

How the values were obtained:
[1] = Study 2: multiple-dose titration study, PK of CR formulation; type: in vivo; conditions: human, plasma, oral, highest dose level in Study 2 (48 mg, CR formulation, schizophrenia)
Experimental: (§1) Study 2 was designed similarly to Study 1; participants were administered CR Release formulations of Compound A/placebo as monotherapy in participants with schizophrenia (n=16) and healthy participants (n=16), or as adjunctive therapy (n=17) (schizophrenia participants only) and titrated from 4 mg to 24 mg (see Table 3 for illustration of PK at the 24 mg dose level as monotherapy in healthy adults). In Study 2 an additional panel of participants with schizophrenia was administered CR formulations of Compound A/placebo as monotherapy and titrated from 8 mg to 48 mg (n=26)(see Table 4 for illustration of PK at the 48 mg dose level).

[2] = Study 3: tolerability / adverse events of CR formulation; type: in vivo, human
Experimental: In Study 3, one panel of participants [(n=8)—monotherapy in adult participants with schizophrenia] were titrated from 16 mg to 24 mg or placebo, while in another panel participants (n=18) received 24 mg/placebo without titration (Table 5) to determine if titration was required for tolerability.
There were 2 events of transient dystonia following the first dose of 16 mg, but both events responded to treatment and participants continued dosing without recurrence. […] Other adverse events (i.e., depression, anxiety and stress) across all three studies were mostly mild or moderate in intensity and there was no clear dose-related increase in specific events (Table 6).

[3] = Study 2: tolerability of CR formulation; type: in vivo, human; conditions: Study 2, CR formulation titrated from 4 mg to 24 mg and from 8 mg to 48 mg
Experimental: as §1

[4] = Study 7: tolerability in healthy subjects 8-72 mg; type: in vivo, human; conditions: Study 7, healthy subjects (n=12) dosed 8 mg to 72 mg; up to and including doses of 48 mg
From the text: Plasma exposures in this study were generally similar those observed in the other multiple dose studies reported here (data not shown).

[5] = 24 mg (Day 1-7), Panel B, participants with schizophrenia, 14 in population

In the case of `Cc1ccc([C@H]2C[C@@H]2COc2cc(NCc3nnc(C)s3)nc(C)n2)nc1` [Compound A, 2-methyl-N-((5-methyl-1,3,4-thiadiazol-2-yl)methyl)-6-(((1S,2S)-2-(5-methylpyridin-2-yl)cyclopropyl)methoxy)pyrimidin-4-amine], the Cmax [1] is reported as about 1800 nM, the concentration at 24 h ([1]; read-out: C24) is reported as about 1200 nM and the “Alanine aminotransferase increased, (%)” value [2, 5] is reported as “(7.1) %”. For the same compound, the “Decreased appetite, (%)” value [2, 5] was “(7.1) %”, the “Hypertonia, (%)” value [2, 5] was “(7.1) %” and the “Investigations (non-serious related AE), (%)” value [2, 5] was “(7.1) %”. The “Metabolism and nutrition disorders, (%)” value [2, 5] was “(7.1) %”, the “Musculoskeletal and connective tissue disorders, (%)” value [2, 5] was “(7.1) %” and the “Musculoskeletal stiffness, (%)” value [2, 5] was “(7.1) %”. For the same compound, the “Nervous system disorders, (%)” value [2, 5] was “(21.4) %”, the “Participants with no Non-Serious Related Adverse Event, (%)” value [2, 5] was “(64.3) %” and the “Participants with one or more Non-Serious Related Adverse Event, (%)” value [2, 5] was “(35.7) %”. For the same compound, the “Somnolence, (%)” value [2, 5] was “(14.3) %”, the tolerability ([2]; Study 3, dosing initiated at 16 mg or 24 mg with no titration) was “generally well tolerated” and the dystonia ([2]; Study 3, dosing initiated at 24 mg without titration) was “No events of dystonia were reported”. For the same compound, the “events of transient dystonia” value ([2]; Study 3, following the first dose of 16 mg) was 2, the dystonia [3] was “no Compound A-related dystonia was observed” and the dystonia [4] was “no dystonia was reported”.
